Reference: ChEMBL document CHEMBL1275446, “Stronger activity of human immunodeficiency virus type 1 protease inhibitors against clinical isolates of Plasmodium vivax than against those of P. falciparum” (Antimicrob Agents Chemother, 2008)

Assays:
[1] = tested on: Plasmodium falciparum; assay: Antimicrobial activity against Plasmodium falciparum at ring stage; format: functional, organism-based
[2] = tested on: Plasmodium vivax; assay: Antimicrobial activity against Plasmodium vivax at ring stage
[3] = tested on: Plasmodium vivax; assay: Antimicrobial activity against Plasmodium vivax at trophozoite stage; format: functional, organism-based
[4] = tested on: Plasmodium vivax; assay: Antimicrobial activity against Plasmodium vivax harboring single copy of Pvmdr1 gene; format: functional, organism-based
[5] = tested on: Plasmodium vivax; assay: Antimicrobial activity against Plasmodium vivax harboring amplified Pvmdr1 gene; format: functional, organism-based
[6] = tested on: Plasmodium falciparum; assay: Antimicrobial activity against Plasmodium falciparum harboring amplified Pfmdr1 gene
[7] = tested on: Plasmodium falciparum; assay: Antimicrobial activity against Plasmodium falciparum harboring single copy of Pfmdr1 gene

**Q.** For `CC(C)(C)NC(=O)[C@@H]1C[C@@H]2CCCC[C@@H]2CN1C[C@@H](O)[C@H](Cc1ccccc1)NC(=O)[C@H](CC(N)=O)NC(=O)c1ccc2ccccc2n1`, which IC50 [1] is on record?
**A.** Its IC50 is 8300 nM.

**Q.** With `CCN(CC)CCCC(C)Nc1ccnc2cc(Cl)ccc12` (centres undefined) [CHLOROQUINE] as the molecule, how does the IC50 [2] read?
**A.** Its IC50 is 38 nM.

**Q.** What about the IC50 [3] of the same molecule?
**A.** Its IC50 is 442 nM.

**Q.** What does the source list for `OC(c1cc(C(F)(F)F)nc2c(C(F)(F)F)cccc12)C1CCCCN1` (centres undefined) [MEFLOQUINE]?
**A.** IC50 [1]: 137 nM; IC50 [4]: 43 nM; IC50 [5]: 176 nM; IC50 [6]: 182 nM; IC50 [7]: 77 nM

**Q.** With `CC(C)c1nc(CN(C)C(=O)N[C@H](C(=O)N[C@@H](Cc2ccccc2)C[C@H](O)[C@H](Cc2ccccc2)NC(=O)OCc2cncs2)C(C)C)cs1` [RITONAVIR] as the molecule, how does the IC50 [1] read?
**A.** The IC50 was 9660 nM.
